PubChem BioAssay AID248 (DTP/NCI, 2004)
Inconclusive results and toxic doses are left out. Cut-off read from the data, not from the text of the source: active = T/C of 150% or more; inactive = T/C below 125%.

System: L1210 leukemia ip in BDF1 mice, survival T/C
Test: NCI In Vivo Anticancer Drug Screen. Data for tumor model L1210 Leukemia (intraperitoneal) in B6D2F1 (BDF1) mice
Details: endpoint: mean survival time, schedule: Q01DX001 (ip), higher = longer survival
Procedure, shortened: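 Transplanted-tumor mice were given test agent; controls received vehicle only. Survival readings from the two groups were divided (treated over control).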

Measured: T/C

CC1(C)N=C(N)N=C(N)N1c1cccc(OCCOc2cccc(N)c2)c1
inactive: dose: 5.0 mg/kg/injection, vehicle: saline 91 % of control | dose: 10.0 mg/kg/injection, vehicle: saline 92 % of control | dose: 20.0 mg/kg/injection, vehicle: saline 94 % of control | dose: 40.0 mg/kg/injection, vehicle: saline 89 % of control | dose: 100.0 mg/kg/injection, vehicle: Klucel (hydroxypropylcellulose) (HPC) 106 % of control
